Laboratory results published in patent US9828339B2, “Biphenyl derivatives and methods for preparing same” (DONG-A ST CO., LTD, priority 2013, dated 2017).
pKi: −log10 of the molar value.

Key:
Sprague-Dawley (SD) rats = experiment: Acute toxicity test for oral administration on rats; type: in vivo, rat; settings: observed for 4 days
Protocol: [Experimental Example 4] Acute Toxicity Test for Oral Administration on Rats
In order to confirm acute toxicity of the compounds of the present invention, following experiment was conducted. A low-dose group, a medi-dose group and a high-dose group, wherein the compounds of Examples were administered 100 mg/kg, 300 mg/kg and 1000 mg/kg respectively, were prepared. Methyl cellulose solution (0.5%) was prepared and orally administered to 3 rats of each group (i.e. both sexes of 6-week old Sprague-Dawley (SD) rats; male rats in 142-143 g; female rats in 126.3-127.3 g) in a volume of 10 mL/kg. Mortality, clinical signs and weight and the like were measured for 4 days, and discovered approximate lethal dose (ALD) therefrom were explained in Table 30 below.

[1] = target: T1, human muscarinic M3 receptor (Homo sapiens (Human), UniProt P20309); experiment: Binding assay on human muscarinic M3 receptor ([3H]-methyl scopolamine displacement); settings: membranes overexpressing human M3 receptor, Ki from IC50 by Cheng-Prusoff, read-out: Binding Affinity to M3 Receptor, Ki
T1 sequence (P20309 whole entry): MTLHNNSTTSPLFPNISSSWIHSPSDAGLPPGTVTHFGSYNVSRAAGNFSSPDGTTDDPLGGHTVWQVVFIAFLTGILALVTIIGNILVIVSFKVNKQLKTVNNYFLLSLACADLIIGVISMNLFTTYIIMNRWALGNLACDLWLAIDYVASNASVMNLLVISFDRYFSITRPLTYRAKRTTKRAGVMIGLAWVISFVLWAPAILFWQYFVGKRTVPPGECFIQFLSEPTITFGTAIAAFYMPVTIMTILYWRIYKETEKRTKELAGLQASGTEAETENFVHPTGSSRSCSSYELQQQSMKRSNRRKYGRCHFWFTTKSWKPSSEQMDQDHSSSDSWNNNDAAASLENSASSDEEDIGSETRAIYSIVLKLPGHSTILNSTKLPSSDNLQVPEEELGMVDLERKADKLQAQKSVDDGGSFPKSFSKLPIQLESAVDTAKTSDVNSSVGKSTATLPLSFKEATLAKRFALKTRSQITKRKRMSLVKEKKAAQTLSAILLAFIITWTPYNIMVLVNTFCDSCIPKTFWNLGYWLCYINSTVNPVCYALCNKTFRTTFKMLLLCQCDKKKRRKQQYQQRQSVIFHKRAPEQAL
Summary of the method: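 Displacement of [3H]-methyl scopolamine from membranes overexpressing human M3, in Tris-HCl, 25 °C, 120 min; filter-bound radioactivity counted. Nonspecific binding with 5 μM atropine; Ki from IC50 via Cheng-Prusoff.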

[2] = target: T1, human muscarinic M3 receptor; experiment: Antagonism assay on human muscarinic M3 receptor (carbachol-induced intracellular calcium, FLIPR Calcium 5, transfected Cos-7 cells); type: cell-based; settings: functional inhibitory constant; carbachol-induced intracellular calcium in Cos-7 cells transfected with human M3 receptor
Summary of the method: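 Cos-7 cells transfected with human M3 receptor plasmid, pre-treated 3 min with compound, then carbachol-stimulated; intracellular calcium read by FLIPR Calcium 5.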

[3] = test system: rhythmic bladder contractions; experiment: Rhythmic bladder contractions in rats (in vivo); parameters: species or system rat; settings: 0.3 mpk, intravenous, female Sprague-Dawley rats; amplitude reduction of bladder contractions
Description: [Experimental Example 3] Experiment on Rhythmic Bladder Contractions in Rats (In Vivo)
Female Sprague-Dawley rat was halothane-anesthetized, and a polyethylene catheter was inserted through urethra lay down straight and fixed. Urine in bladder was excreted through the catheter by gently massaging abdomen of the rat, and then removed. A three-way stopcock was connected to the catheter and a pressure transducer was connected to one side of the three-way stopcock to measure pressure, and a syringe was installed at the other side to inject 37° C. of saline solution. The saline solution was slowly injected until regular bladder contractions occurred repeatedly. When regular bladder contractions occurred stably, test compounds were administered intravenously through the tail vein. Inhibitory effect of the test compounds was evaluated by measuring degree of amplitude reduction of bladder contractions.

Row | pKi [1] | pKi [2] | SMILES | Approximate Lethal Dose (ALD) (Sprague-Dawley (SD) rats) | Inhibition of Rhythmic bladder contraction in rats [3]
1 | 8.09 | 8.54 | CN1CC[C@H](COC(=O)Nc2ccc(F)cc2-c2ccc(F)cc2)C1 [Example 124, (S)-(1-methylpyrrolidin-3-yl)methyl(4′,5-difluoro-[1,1′-biphenyl]-2-yl)carbamate] | – | 21.2 ± 0.7%
2 | 8.20 | 9.12 | CN1CC[C@@H](COC(=O)Nc2ccc(F)cc2-c2cc(F)cc(F)c2)C1 [Example 95, (R)-(1-methylpyrrolidin-3-yl)methyl (3′,5,5′-trifluoro-[1,1′-biphenyl]-2-yl)carbamate] | – | 15.7 ± 0.8%
3 | 8.00 | 8.91 | CN1CCCC1CCOC(=O)Nc1ccc(F)cc1-c1cc(F)cc(Cl)c1 (stereo not shown) [Example 52, 2-(1-methylpyrrolidin-2-yl)ethyl (3′-chloro-5,5′-difluoro-[1,1′-biphenyl]-2-yl)carbamate] | – | 10.8 ± 0.8%
4 | 8.42 | 8.62 | Cc1cccc(-c2cc(F)ccc2NC(=O)OCCC2CCCN2C)c1 (stereo not shown) [Example 22, 2-(1-methylpyrrolidin-2-yl)ethyl(5-fluoro-3′-methyl-[1,1′-biphenyl]-2-yl)carbamate] | – | 16.7 ± 1.7%
5 | 8.88 | 8.52 | CN1CCCC1CCOC(=O)Nc1ccccc1-c1cccc(Cl)c1 (stereo not shown) [Example 8, 2-(1-methylpyrrolidin-2-yl)ethyl(3′-chloro-[1,1′-biphenyl]-2-yl)carbamate] | – | 23.2 ± 2.3%
6 | 8.20 | 9.24 | CN1CC[C@@H](COC(=O)Nc2ccc(F)cc2-c2cccc(F)c2)C1 [Example 194, (R)-(1-methylpyrrolidin-3-yl)methyl(3′,5-difluoro-[1,1′-biphenyl]-2-yl)carbamate] | – | 24.6 ± 2.6%
7 | 8.53 | 8.47 | CN1CCCC1CCOC(=O)Nc1ccccc1-c1cccc(F)c1 (stereo not shown) [Example 4, 2-(1-methylpyrrolidin-2-yl)ethyl(3′-fluoro-[1,1′-biphenyl]-2-yl)carbamate] | – | 22.3 ± 4.9%
8 | 8.16 | 8.51 | CN1CCCC1CCOC(=O)Nc1ccc(Cl)cc1-c1ccccc1 (stereo not shown) [Example 66, 2-(1-Methylpyrrolidin-2-yl)ethyl (5-chloro-[1,1′-biphenyl]-2-yl)carbamate] | – | 12.0 ± 1.4%
9 | 7.85 | 8.53 | CN1CC[C@@H](COC(=O)Nc2ccc(Cl)cc2-c2cccc(Cl)c2)C1 [Example 145, (R)-(1-methylpyrrolidin-3-yl)methyl(3′,5-dichloro-[1,1′-biphenyl]-2-yl)carbamate] | – | 13.1 ± 3.0%
10 | 8.19 | 8.62 | Cc1ccc(-c2cc(F)ccc2NC(=O)OCCC2CCCN2C)cc1C (stereo not shown) [Example 59, 2-(1-methylpyrrolidin-2-yl)ethyl(5-fluoro-3′,4′-dimethyl-[1,1′-biphenyl]-2-yl)carbamate] | – | 11.6 ± 1.9%
11 | 8.32 | 8.32 | CN1CCCC1CCOC(=O)Nc1ccc(Cl)cc1-c1ccc(F)c(Cl)c1 (stereo not shown) [Example 73, 2-(1-Methylpyrrolidin-2-yl)ethyl(3′,5-dichloro-4′-fluoro-[1,1′-biphenyl]-2-yl)carbamate] | – | 10.0 ± 1.0%
12 | 8.48 | 9.54 | CN1CCC[C@H]1COC(=O)Nc1cc(F)c(F)cc1-c1ccc(F)c(Cl)c1 [Example 181, (S)-(1-methylpyrrolidin-2-yl)methyl(3′-chloro-4,4′,5-trifluoro-[1,1′-biphenyl]-2-yl)carbamate] | – | 18.1 ± 2.6%
13 | 7.87 | 8.45 | Cc1ccc(NC(=O)OC[C@@H]2CCCN2C)c(-c2cccc(F)c2)c1 [Example 207, (S)-(1-methylpyrrolidin-2-yl)methyl(3′-fluoro-5-methyl-[1,1′-biphenyl]-2-yl)carbamate] | – | 18.2 ± 3.7%

Row | SMILES | pKi [1] | pKi [2] | Approximate Lethal Dose (ALD) (Sprague-Dawley (SD) rats) | Inhibition of Rhythmic bladder contraction in rats [3]
14 | CN1CC[C@@H](COC(=O)Nc2ccccc2-c2ccc(F)c(Cl)c2)C1 [Example 136, (R)-(1-methylpyrrolidin-3-yl)-methyl (3′-chloro-4′-fluoro-[1,1′-biphenyl]-2-yl)carbamate] | 8.80 | 9.60 | >1000 mg/kg | 33.2 ± 4.0%
15 | Cc1cccc(-c2ccccc2NC(=O)OC[C@@H]2CCN(C)C2)c1 [Example 100, (R)-(1-methylpyrrolidin-3-yl)methyl(3′-methyl-[1,1′-biphenyl]-2-yl)carbamate] | 8.61 | 9.19 | >1000 mg/kg | 26.0 ± 6.0%
16 | CN1CCCC1CCOC(=O)Nc1ccc(F)cc1-c1ccc(F)c(Cl)c1 (stereo not shown) [Example 53, 2-(1-methylpyrrolidin-2-yl)ethyl(3′-chloro-4′,5-difluoro-[1,1′-biphenyl]-2-yl)carbamate] | 8.87 | 9.24 | >1000 mg/kg | 28.0 ± 5.0%
17 | CN1CC[C@@H](COC(=O)Nc2ccc(F)cc2-c2ccc(F)c(Cl)c2)C1 [Example 143, (R)-(1-methylpyrrolidin-3-yl)methyl(3′-chloro-4′,5-difluoro-[1,1′-biphenyl]-2-yl)carbamate] | 8.95 | 9.17 | >1000 mg/kg | 24.3 ± 5.5%
18 | CN1CC[C@H](COC(=O)Nc2ccccc2-c2ccccc2)C1 [Example 90, (S)-(1-methylpyrrolidin-3-yl)methyl [1,1′-biphenyl]-2-ylcarbamate] | 8.71 | 9.77 | >1000 mg/kg | 27.4 ± 1.9%
19 | CN1CC[C@@H](COC(=O)Nc2ccccc2-c2cc(F)cc(F)c2)C1 [Example 91, (R)-(1-methylpyrrolidin-3-yl)methyl (3′,5′-difluoro-[1,1′-biphenyl]-2-yl)carbamate] | 8.35 | 8.88 | >1000 mg/kg | 25.2 ± 2.5%
20 | Cc1cccc(-c2ccccc2NC(=O)OC[C@@H]2CCCN2C)c1 [Example 199, (S)-(1-methylpyrrolidin-2-yl)methyl(3′-methyl-[1,1′-biphenyl]-2-yl)carbamate] | 9.10 | 9.59 | >1000 mg/kg | 27.8 ± 4.5%
21 | Cc1cccc(-c2ccccc2NC(=O)OCCC2CCCN2C)c1 (stereo not shown) [Example 15, 2-(1-methylpyrrolidin-2-yl)ethyl(3′-methyl-[1,1′-biphenyl]-2-yl)carbamate] | 8.64 | 8.39 | >1000 mg/kg | 25.6 ± 2.2%
22 | CCN1CC[C@@H](COC(=O)Nc2ccccc2-c2ccc(F)c(Cl)c2)C1 [Example 150, (R)-(1-ethylpyrrolidin-3-yl)methyl (3′-chloro-4′-fluoro-[1,1′-biphenyl]-2-yl)carbamate] | 8.25 | 8.87 | >1000 mg/kg | 25.1 ± 2.5%
23 | CN1CC[C@H](COC(=O)Nc2ccc(F)cc2-c2ccc(Cl)c(Cl)c2)C1 [Example 128, (S)-(1-methylpyrrolidin-3-yl)methyl(3′,4′-dichloro-5-fluoro-[1,1′-biphenyl]-2-yl)carbamate] | 8.47 | 8.92 | – | 15.1 ± 3.4%
24 | CN1CC[C@@H](COC(=O)Nc2ccccc2-c2ccccc2)C1 [Example 89, (R)-(1-methylpyrrolidin-3-yl)methyl [1,1′-biphenyl]-2-ylcarbamate] | 8.61 | 9.80 | >1000 mg/kg | 33.9 ± 3.5%
